Reference: patent publication US9926315B2, “Triazolopyridine compounds and methods for the treatment of cystic fibrosis” (Flatley Discovery Lab, LLC, priority 2014, dated 2018)

Target: T1, human ΔF508-CFTR (Homo sapiens, UniProt P13569, DEL508-508)
T1 construct: expressed in transfected cells
Assay: CFTR-YFP High Throughput Assay (HTS YFP flux assay, corrector / potentiator protocols)
Assay type: cell-based
Details: FRT cells stably expressing human ΔF508-CFTR and YFP-H148Q/I152L; for Emax: normalized to positive control, read-out: Emax (% Efficacy, EMax normalized to the positive control)
Description: Assays for Detecting and Measuring the Effect of Compounds on dF508-CFTR Channels CFRT-YFP High Throughput Assay: Corrector Assay:
The following protocol is designed to selectively screen small molecule compounds for F508del CFTR corrector activities in the HTS YFP flux assay. In this protocol, the cells are incubated with testing compounds for 24 hours, washed with PBS, stimulated with forskolin and a standard potentiator, and read on a 384-well HTS plate reader, such as the Hamamatsu FDDD-6000.
(§1) YFP fluorescence intensity is acquired at high speed before and after iodide buffer is injected to the assay cells. Iodide enters the cells via active CFTR channels in the plasma membrane, and quenches the YFP fluorescence. The rate of fluorescence quenching is proportionally related to the total CFTR activities in the cell membrane. dF508-CFTR corrector accelerates YFP quenching by increasing the number of CFTR molecules in the testing cell plasma membrane.
This method was initially developed for bench top plate readers (Galietta, 2001), and was adapted to the HTS format (Sui, 2010).
Fisher Rat Thyroid (FRT) cells stably expressing both human ΔF508-CFTR and a halide-sensitive yellow fluorescent protein (YFP-H148Q/I152L 25, 22) (Galietta, 2001) were cultured on plastic surface in Coon's modified Ham's F12 medium supplemented with FBS 10%, L-glutamine 2 mM, penicillin 100 U/mL, and streptomycin 100 μg/mL. G418 (0.75-1.0 mg/mL) and zeocin (3.2 μg/mL) were used for selection of FRT cells expressing ΔF508-CFTR and YFP. For primary screening, FRT cells were plated into 384-well black wall, transparent bottom microtiter plates (Costar; Corning Inc.) at a cell density of 20, 000-40, 000 per well. Test compound was applied to the cells at varying concentrations ranging from 2 nM-[…] in either a 2-fold or 3-fold dilution series. Cells were incubated in a cell culture incubator at 37° C. with 5% CO2 for 24-26 h. Assay plates were washed with DPBS media (Thermo, cat#SH30028.02) to remove unbound cells and compound. Stimulation media (25 μL) containing 20 μM Forskolin & 30 μM P3 [6-(Ethyl-phenyl-sulfonyl)-4-oxo-1, 4-dihydro-quinoline-3-carboxylic acid 2-methoxy-benzylamide] in Hams F-12 coon's modified media was added to the plate wells and incubated at room temperature for 60-120 min. 25 μL of HEPES-PBS-I buffer (10 mM HEPES, 1 mM MgCl2, 3 mM KCl, 1 mM CaCl2, 150 mM NaI) was then added and fluorescence quench curves (Excitation 500 nm/Emission 540 nm; exposure 136 ms) were immediately recorded on an FDSS-6000 plate reader (Hamamatsu). Quench rates were derived from least squares fitting of the data (Sui, 2010).
The following protocol is designed to selectively screen small molecule compounds for F508del CFTR potentiator activities in the HTS YFP flux assay. In this protocol, the cells are incubated at 27° C. for 24 hours with homogeneously boosted dF508-CFTR expression in the cell membrane by the low temperature, washed with PBS, stimulated with forskolin, and read on a 384-well HTS plate reader, such as the Hamamatsu […].
as §1, with “dF508del-CFTR potentiators accelerate” for “dF508-CFTR corrector accelerates”, “increasing” for “increasing the number of”, “activities” for “molecules”
Fisher Rat Thyroid (FRT) cells stably expressing both human ΔF508-CFTR and a halide-sensitive yellow fluorescent protein (YFP-H148Q/I152L 25, 22) (Galietta, 2001) were cultured on plastic surface in Coon's modified Ham's F12 medium supplemented with FBS 10%, L-glutamine 2 mM, penicillin 100 U/mL, and streptomycin 100 μg/mL. G418 (0.75-1.0 mg/mL) and zeocin (3.2 μg/mL) were used for selection of FRT cells expressing ΔF508-CFTR and YFP. […]

T1 sequence (P13569 with tags, fused parts or gaps DEL508-508): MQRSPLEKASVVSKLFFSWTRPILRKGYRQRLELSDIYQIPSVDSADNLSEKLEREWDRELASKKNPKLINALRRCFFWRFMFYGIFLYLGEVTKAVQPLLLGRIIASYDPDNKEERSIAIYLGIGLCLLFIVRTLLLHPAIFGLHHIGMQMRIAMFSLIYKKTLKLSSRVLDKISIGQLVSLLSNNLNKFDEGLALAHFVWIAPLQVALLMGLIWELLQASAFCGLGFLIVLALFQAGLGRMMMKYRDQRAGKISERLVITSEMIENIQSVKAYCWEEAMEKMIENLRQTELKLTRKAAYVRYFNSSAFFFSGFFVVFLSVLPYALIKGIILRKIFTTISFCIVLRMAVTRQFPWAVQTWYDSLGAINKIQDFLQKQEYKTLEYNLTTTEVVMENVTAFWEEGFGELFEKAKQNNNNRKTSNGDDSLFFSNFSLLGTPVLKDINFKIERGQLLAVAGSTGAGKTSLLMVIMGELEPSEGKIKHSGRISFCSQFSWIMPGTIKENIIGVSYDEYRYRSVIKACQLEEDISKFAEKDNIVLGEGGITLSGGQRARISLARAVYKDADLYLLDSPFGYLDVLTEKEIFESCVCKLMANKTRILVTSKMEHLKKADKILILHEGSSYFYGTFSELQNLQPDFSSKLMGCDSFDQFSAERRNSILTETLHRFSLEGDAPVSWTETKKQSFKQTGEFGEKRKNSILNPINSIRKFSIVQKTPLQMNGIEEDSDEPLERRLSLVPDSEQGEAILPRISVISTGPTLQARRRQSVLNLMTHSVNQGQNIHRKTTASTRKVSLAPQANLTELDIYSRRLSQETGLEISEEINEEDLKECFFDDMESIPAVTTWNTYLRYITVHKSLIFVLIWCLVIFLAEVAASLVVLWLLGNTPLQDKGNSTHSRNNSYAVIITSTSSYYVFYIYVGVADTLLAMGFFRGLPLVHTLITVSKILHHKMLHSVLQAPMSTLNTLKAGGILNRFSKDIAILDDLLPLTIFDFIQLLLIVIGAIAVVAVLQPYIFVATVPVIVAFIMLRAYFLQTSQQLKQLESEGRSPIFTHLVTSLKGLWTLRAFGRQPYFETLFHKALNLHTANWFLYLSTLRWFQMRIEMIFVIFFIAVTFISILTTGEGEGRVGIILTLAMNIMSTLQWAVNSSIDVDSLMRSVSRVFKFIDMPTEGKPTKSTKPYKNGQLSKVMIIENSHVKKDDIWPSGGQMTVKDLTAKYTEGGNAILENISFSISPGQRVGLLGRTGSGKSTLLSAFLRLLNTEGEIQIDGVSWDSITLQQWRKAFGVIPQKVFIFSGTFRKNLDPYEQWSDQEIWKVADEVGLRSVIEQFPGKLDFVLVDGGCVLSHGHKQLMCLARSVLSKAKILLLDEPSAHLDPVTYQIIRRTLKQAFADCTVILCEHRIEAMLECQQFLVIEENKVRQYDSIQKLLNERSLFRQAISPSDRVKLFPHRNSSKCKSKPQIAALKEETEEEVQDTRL

| Structure (SMILES) | EC50 [nM] | Emax [%] |
| --- | --- | --- |
| O=S(=O)(c1ccccc1)c1ccc2nc(NCc3ccc(C4CCOCC4)cc3)nn2c1 [Example 92] | 1000 to 10000 | 40 to 80 |
| CCN(CC)S(=O)(=O)c1ccc2nnc(NCC(C)(C)OC)n2c1 [Example 31] | 1000 to 10000 | 40 to 80 |
| CCN(CC)S(=O)(=O)c1ccc2nnc(NC[C@H]3CCCO3)n2c1 [Example 23] | > 10000 | > 80 |
| O=C(CNc1nnc2ccc(S(=O)(=O)c3ccccc3)cn12)C1CCCCC1 [Example 79] | 1000 to 10000 | > 80 |
| CCN(CC)S(=O)(=O)c1ccc2nnc(NCC3CCCO3)n2c1 (stereo not shown) [Example 14] | > 10000 | 40 to 80 |
| CCN(CC)S(=O)(=O)c1ccc2nnc(N[C@@H](C)C(=O)N3CCCCC3)n2c1 [Example 57] | 1000 to 10000 | 40 to 80 |
| CCN(CC)S(=O)(=O)c1ccc2nnc(NC3CCCc4ccccc43)n2c1 (stereo not shown) [Example 2] | < 1000 | > 80 |
| O=S(=O)(c1ccccc1)c1ccc2nnc(NCC(O)C3CCCCC3)n2c1 (stereo not shown) [Example 66] | < 1000 | > 80 |
| Cc1ccc([C@@H](C)Nc2nc3ccc(S(=O)(=O)c4ccccc4)cn3n2)cc1 [Example 90] | 1000 to 10000 | 40 to 80 |
| CCN(CC)S(=O)(=O)c1ccc2nnc(N3CCN(Cc4ccccc4)CC3)n2c1 [Example 6] | 1000 to 10000 | 40 to 80 |
| CCN(CC)S(=O)(=O)c1ccc2nnc(NCCC(C)(C)C)n2c1 [Example 45] | < 1000 | > 80 |
| CCN(CC)S(=O)(=O)c1ccc2nnc(NCC3CCCCC3)n2c1 [Example 52] | 1000 to 10000 | > 80 |
| O=S(=O)(c1ccccc1)c1ccc2nnc(NCCC3CCCCC3)n2c1 [Example 76] | 1000 to 10000 | > 80 |
| CCN(CC)S(=O)(=O)c1ccc2nnc(NC3CCc4ccccc4C3)n2c1 (stereo not shown) [Example 32] | 1000 to 10000 | 40 to 80 |
| CCN(CC)S(=O)(=O)c1ccc2nnc(NCc3ccc(OC)cc3)n2c1 [Example 16] | < 1000 | 40 to 80 |
| CCN(CC)S(=O)(=O)c1ccc2nnc(NC3CCOc4ccccc43)n2c1 (stereo not shown) [Example 44] | < 1000 | > 80 |
| CCN(CC)S(=O)(=O)c1ccc2nnc(NC(C)c3ccc(C)cc3)n2c1 (stereo not shown) [Example 27] | < 1000 | > 80 |
| CCN(CC)S(=O)(=O)c1ccc2nnc(NCCc3ccccc3)n2c1 [Example 25] | < 1000 | > 80 |
| CCN(CC)S(=O)(=O)c1ccc2nnc(NCC(C)(C)C)n2c1 [Example 7] | < 1000 | 40 to 80 |
| CCN(CC)S(=O)(=O)c1ccc2nnc(NCc3cccc(C#N)c3)n2c1 [Example 56] | < 1000 | > 80 |
| CCN(CC)S(=O)(=O)c1ccc2nnc(NCc3cccc(C)c3)n2c1 [Example 10] | < 1000 | > 80 |
| CCN(CC)S(=O)(=O)c1ccc2nnc(NCC(O)COC)n2c1 (stereo not shown) [Example 24] | 1000 to 10000 | > 80 |
| O=S(=O)(c1ccccc1)c1ccc2nc(NC[C@H](O)c3ccccc3)nn2c1 [Example 83] | < 1000 | > 80 |
| CCN(CC)S(=O)(=O)c1ccc2nnc(NC3CCc4ccccc43)n2c1 (stereo not shown) [Example 30] | < 1000 | > 80 |
| O=S(=O)(c1ccccc1)c1ccc2nnc(NCc3ccc(C(F)(F)F)cc3)n2c1 [Example 63] | < 1000 | 40 to 80 |
| CCN(CC)S(=O)(=O)c1ccc2nnc(NCc3ccccc3F)n2c1 [Example 54] | 1000 to 10000 | > 80 |
| CCN(CC)S(=O)(=O)c1ccc2nnc(NCc3ccc4c(c3)CCO4)n2c1 [Example 40] | < 1000 | > 80 |

The remaining lines, values ahead:

| EC50 [nM] | Emax [%] | Structure (SMILES) |
| --- | --- | --- |
| < 1000 | > 80 | C[C@@H](Nc1nnc2ccc(S(=O)(=O)c3ccccc3)cn12)c1ccccc1 [Example 62, (R)—N-(1-Phenylethyl)-6-(phenylsulfonyl)-[1,2,4]triazolo[4,3-a]pyridin-3-amine] |
| < 1000 | > 80 | O=S(=O)(c1ccccc1)c1ccc2nc(NC3Cc4ccccc4C3)nn2c1 [Example 80, N-(2,3-dihydro-1H-inden-2-yl)-6-(phenylsulfonyl)-[1,2,4]triazolo[1,5-a]pyridin-2-amine] |
| < 1000 | > 80 | CCN(CC)S(=O)(=O)c1ccc2nnc(NCC(C)C)n2c1 [Example 17] |
| < 1000 | > 80 | CCN(CC)S(=O)(=O)c1ccc2nnc(NCc3ccc(-c4ccccc4)cc3)n2c1 [Example 5] |
| < 1000 | > 80 | CCN(CC)S(=O)(=O)c1ccc2nnc(N[C@H](C)C3CCCCC3)n2c1 [Example 34] |
| < 1000 | > 80 | CCN(CC)S(=O)(=O)c1ccc2nnc(NCc3ccc(C)c(C)c3)n2c1 [Example 39] |
| < 1000 | > 80 | CCN(CC)S(=O)(=O)c1ccc2nnc(NC(C)C(C)C)n2c1 (stereo not shown) [Example 43] |
| < 1000 | > 80 | CCN(CC)S(=O)(=O)c1ccc2nnc(NC(C)c3ccc(OC)cc3)n2c1 (stereo not shown) [Example 28] |
| < 1000 | > 80 | Cc1ccc(CNc2nc3ccc(S(=O)(=O)N4CCCCC4)cn3n2)cc1 [Example 102] |
| < 1000 | > 80 | O=S(=O)(c1ccccc1)c1ccc2nc(NCC3CC3)nn2c1 [Example 86] |
| < 1000 | 40 to 80 | CC(C)N(C(C)C)S(=O)(=O)c1ccc2nnc(N[C@H](C)c3ccccc3)n2c1 [Example 47] |
| < 1000 | > 80 | O=S(=O)(c1ccccc1)c1ccc2nnc(NCC(O)C3CCCC3)n2c1 (stereo not shown) [Example 73] |
| < 1000 | > 80 | O=S(=O)(c1ccccc1)c1ccc2nnc(NCC(O)c3ccc(F)cc3)n2c1 (stereo not shown) [Example 75] |
| < 1000 | > 80 | CCN(CC)S(=O)(=O)c1ccc2nnc(NCc3ccc(N(C)C)cc3)n2c1 [Example 37] |
| < 1000 | > 80 | O=S(=O)(c1ccccc1)c1ccc2nnc(NC[C@H](O)c3ccccc3)n2c1 [Example 70] |
| < 1000 | > 80 | CCN(CC)S(=O)(=O)c1ccc2nnc(NCC3CCOCC3)n2c1 [Example 50] |
| < 1000 | 40 to 80 | CCN(c1cccnc1)S(=O)(=O)c1ccc2nnc(N[C@H](C)c3ccccc3)n2c1 [Example 58, (R)—N-Ethyl-3-((1-phenylethyl)amino)-N-(pyridin-3-yl)-[1,2,4]triazolo[4,3-a]pyridine-6-sulfonamide] |
| < 1000 | > 80 | CCN(CC)S(=O)(=O)c1ccc2nnc(NC3CCCC3)n2c1 [Example 26] |
| < 1000 | > 80 | COC[C@@H](Nc1nnc2ccc(S(=O)(=O)c3ccccc3)cn12)c1ccccc1 [Example 68] |
| < 1000 | > 80 | CCN(CC)S(=O)(=O)c1ccc2nnc(NCCC(C)C)n2c1 [Example 19] |
| < 1000 | 40 to 80 | CCN(CC)S(=O)(=O)c1ccc2nnc(NCC(=O)Nc3ccc(C)c(C)c3)n2c1 [Example 22] |
| < 1000 | > 80 | CCC(Nc1nnc2ccc(S(=O)(=O)N(CC)CC)cn12)c1ccccc1 (stereo not shown) [Example 29] |
| < 1000 | > 80 | O=S(=O)(c1ccccc1)c1ccc2nnc(NCc3ccc(-c4ccccn4)cc3)n2c1 [Example 65] |
